From a melting point compilation (Tetko et al.; mined from patent text by program, amines drawn as free bases though some values may be those of a salt) come the findings set out here.

For orientation: melting point means the temperature, or range, at which the solid turns liquid. In turn, `COc1ccc2[nH]c(SCc3ncc(Br)c(N4CCCCC4)c3C)nc2c1` had a melting point of 90 to 92 °C.

Consider `O=C1NC(=O)C(S(=O)(=O)c2ccc3ccccc3c2)S1` (stereo unspecified), for which the melting point lay within 196 to 197 °C.

Turning to `Nc1nc(N)c2ncn(CCC(CO)CO)c2n1`, the melting point was in the range of 187 to 190 °C.

Turning to `CCCCC#CCC#CCC#CCCCCCCC(=O)O`, the melting point lay in the range of 48.5 to 49.5 °C.

In turn, `CCN(CC)CCOc1ccc(Nc2ncc3c(n2)N(C)C(=O)N(C)C3)cc1` had a melting point of 186 °C.

Regarding `CC(C)(CCc1nnn[nH]1)c1ccc(C(=O)Nc2cn3cc(C(F)(F)F)ccc3n2)cc1`, the melting point is 250 to 251 °C.

`Cc1ccnc2c1C(=O)CC(c1cccs1)C2` (stereo unspecified) displayed a melting point of 105 to 107 °C.

Turning to `CC(C)Oc1c(F)cc2c(O)c(C(=O)NCc3ccc(Cl)cc3)cnc2c1F`, the melting point was 207 to 209 °C.

`NC(=O)Cc1ccccc1OCCn1ccnc1` registered a melting point of 116 to 118 °C.

On to `CCCCCCCCCCCCCCCCCCNC(=O)OCC(CNS(=O)(=O)CCCI)NC(=O)NC` (stereo unspecified), for which the melting point fell in the range of 87 to 89 °C.

In the case of `O=C(Nc1cccc2cc(Cn3ccnc3)cnc12)c1c(Cl)cccc1Cl`, the melting point was in the range of 177 to 179 °C.

As for `CCCOC(=O)c1ccc(CCCCOCCCCCNCC(O)c2ccc(O)c(NS(C)(=O)=O)c2)cc1` (stereo unspecified), the melting point lay within 74 to 76 °C.

`O=S1CCN(c2nc(N3CCNCC3)cc3c(F)cccc23)CC1` showed a melting point of 213 to 215 °C.

Compound `O=S(=O)(c1ccccc1F)n1ccc2c(OCc3ccccc3)cccc21` yielded a melting point of 117 to 120 °C.

Consider `Cc1cc(C)c(C2C(=O)N3CCCCN3C2=O)c(C)c1`, for which the melting point was in the range of 247 to 248 °C.

As for `CCNc1cc(-c2nc(=O)c3ccccc3s2)ccc1C(=O)OC`, the melting point fell in the range of 171 to 178 °C.

The compound `CCS(=O)c1nc2ccc([N+](=O)[O-])cc2s1` (stereo unspecified) had a melting point of 145 to 149 °C.

As for `O=CNC1=NN(c2ccccc2)C(c2ccccc2)C1` (stereo unspecified), the melting point was 158 to 160 °C.

`CC(C)(C)c1cc(C(=O)c2ccn(Cc3ccccc3)c2)cc(C(C)(C)C)c1O` registered a melting point of 123 to 124 °C.

`CC(=O)C=CC1=C(C)C(=O)CCC1(C)C` came in with a melting point of 50 to 51 °C.

In turn, `Cc1ccc(OC2COc3ccc(OCc4ccc5ccccc5n4)cc3C2O)cn1` (stereo unspecified) displayed a melting point of 134 to 136 °C.

For the compound `CCOC(=O)CN1C(=O)C2(COc3cc(F)c(F)cc32)c2c(Br)cccc21` (stereo unspecified), the melting point is 133 to 134 °C.

Compound `C=Cn1ccnc1C(O)(c1ccc(Cl)cc1)c1ccc(Cl)cc1` came in with a melting point of 174 °C.

Take `O=S(=O)(Nc1ccc(Cl)cc1-c1nc2ccccc2[nH]1)c1ccc(Cl)cc1`: the melting point was 225 to 228 °C.

For `Cc1cc(F)ccc1-c1cc(N2CCSCC2)ncc1C(=O)NC(C)(C)C`, the melting point is 164 to 169 °C.

Regarding `CCOC(=O)c1cn(CCO)c2nc(N3CCN(C)CC3)ncc2c1=O`, the melting point was in the range of 197 to 199 °C.

Turning to `CCOc1ccc(CC(=O)NCCc2ccc(OC(C)C)c(OC(C)C)c2)cc1OCC`, the melting point is 71 °C.

As for `Cc1nc(C)c(C(O)=C(C#N)c2nn(-c3ccccc3)nc2C)s1`, the melting point lay within 117 to 118 °C.

In turn, `COC(=O)C1C(C)OC(=O)C(C)C1NC(=O)OCc1ccccc1` (stereo unspecified) showed a melting point of 144 to 146 °C.

`COC(=O)c1sc(C(=O)OC)c(OC)c1N`: the melting point fell in the range of 120 to 124 °C.

The compound `O=C(Cc1cccs1)c1c(O)sc2ccccc12` yielded a melting point of 99 to 101 °C.

For the compound `COc1ccc(-c2cc(C(=O)NCCCCCCc3ccccc3)cc(-c3cccc(C(F)(F)F)c3)c2OCCO)cc1`, the melting point was 153 to 159 °C.

In turn, `NC(=O)c1cccc2nc3n(c12)CCCN3c1ccc(Cl)cc1Cl` had a melting point of 198 to 200 °C.

Compound `CC(C)(C)C(=O)C(=Cn1ccnc1)Oc1ccc(Cl)cc1` came in with a melting point of 94 to 95 °C.

As to `CCOC(=O)c1cc2c(C(F)(F)F)cc(CP(=O)(OCC)OCC)cc2n1C`, the melting point fell in the range of 95 to 96.5 °C.

In the case of `CCOC(=O)CC[C@H](NC(=O)c1ccc(CCc2cnc3[nH]c(NC(=O)C(C)(C)C)nc(=O)c3c2)s1)C(=O)OCC`, the melting point is 57 to 87 °C.

Take `CCCCCCOc1ccc(-c2ncc(C#N)c(Cl)n2)cc1`: the melting point stood at 133 °C.

The compound `Cc1ccc(NC(=O)c2ccc(/C=C/C(=O)NO)s2)cc1Nc1nc(-c2cccnc2)cs1` returned a melting point of 242 °C.

The compound `CC1(C)CCC(C)(C)c2c(OS(=O)(=O)C(F)(F)F)cc(-c3ccccc3)cc21` came in with a melting point of 110 °C.

Compound `Cn1nc(-c2ccc([N+](=O)[O-])o2)c2c(NO)ncnc21` showed a melting point of 294 °C.

On to `Cc1ccc(S(=O)(=O)OCC(O)(CC(C)(C)c2ccccc2)C(F)(F)F)cc1` (stereo unspecified), for which the melting point was determined as 78 °C.

Compound `CCc1nc2c(N)nc3ccccc3c2n1CCCCNC(=O)Nc1ccccc1` had a melting point of 180 to 181 °C.

`CCC1(C)C(=CC=C2C(=O)c3ccccc3C2=C(C#N)C#N)N2CCc3cccc1c32` (stereo unspecified) showed a melting point of 230 °C.

On to `O=[N+]([O-])c1cnn2c(-c3cccs3)ccnc12`, for which the melting point fell in the range of 235 to 237 °C.

In the case of `CCOC(=O)c1cc(NCc2ccccc2)c(Nc2cccc(C)c2)c(S(N)(=O)=O)c1`, the melting point was in the range of 169 to 170 °C.

For the compound `COC1=C(C(=O)c2ccc(C)cc2)C(c2ccc(C(C)C)cc2)N(c2ccc(C)nn2)C1=O` (stereo unspecified), the melting point lay in the range of 248 to 249 °C.

As to `CCNc1cccnc1N(CC)CC1CCN(C(=O)c2ccc[nH]2)CC1`, the melting point lay within 109 to 110 °C.

Consider `CC(C)C[C@H](NC1CCCCC1)C(=O)N1CCN(C(c2ccc(F)cc2)c2ccc(F)cc2)CC1`, for which the melting point was 45 to 54 °C.

As for `COc1cc(C=CC(=O)CCCOc2ccccc2)ccc1O`, the melting point lay in the range of 67 to 70 °C.

As to `CC(=O)Oc1cc(C(C)C)ccc1C1(OC(C)=O)C(=O)c2cccc([N+](=O)[O-])c2C1=O` (stereo unspecified), the melting point was 94 to 98 °C.

For the compound `N#Cc1ccc(CN2c3ccc(Cl)cc3C=C(C(=O)O)C2C(F)(F)F)cc1` (stereo unspecified), the melting point fell in the range of 258 to 260 °C.

As for `Cc1cccc(C)c1NC(=O)CN1C(=O)C2(COc3cc4c(cc32)CCO4)c2ccccc21` (stereo unspecified), the melting point fell in the range of 261 to 262 °C.

Compound `CC(=O)C1=C(O)C(=C(C)Nc2ccc(N)cc2)C(=O)OC1=O` came in with a melting point of 215 to 218 °C.

Take `COCO[C@H]1C[C@H]2OC(C)(C)OC[C@]23C2C(CC[C@]3(O)C1)[C@@]1(OCOC)CC[C@H](CO)[C@@]1(C)C[C@H]2OCOC` (stereo partly specified): the melting point was in the range of 154 to 158 °C.

Regarding `COCc1cc(=O)c(Oc2ccc(F)cc2F)c(-c2ccc(S(C)(=O)=O)cc2)o1`, the melting point is 124 °C.

`CC(C)CC(=O)N1CCC(NC(=O)c2ccccc2Oc2ccc(Cl)cc2Cl)CC1`: the melting point was 57 to 60 °C.

Compound `CS(=O)c1ccc(CI)cc1` (stereo unspecified) yielded a melting point of 80 to 81 °C.

`O=C(NC(CS)Cc1ccccc1)N1C=CC=CC1` (single isomer, unassigned; (+)) gave a melting point of 115 to 117 °C.

With `CN(C)CCCCCC=C(NC(=O)C1CC1(C)C)C(=O)O` (stereo unspecified), the melting point was 101 to 112 °C.

As to `Cc1ccc(C(=O)/C=C/c2cc(C(C)(C)C)c3oc(=O)c(C(=O)O)cc3c2)cc1`, the melting point is 185 to 186 °C.

In the case of `O=C(O)Cc1cccc2nnsc12`, the melting point was 148 to 150 °C.
